Assay results from PMC7270110, “Labeled oxytocin administered via the intranasal route reaches the brain in rhesus macaques” (Nature Communications, 2020).

Test: Brain tissue concentration of endogenous OT (d0OT) by LC-MS/MS (terminal experiment)
Format: in vivo, rhesus macaques (Macaca mulatta)
Parameters: key: ND: not detected; +: detected but not quantifiable
Details: for Concentrations of endogenous brain oxytocin (OT): molarity calculated for extracellular fluid volume; for BRAIN OT concentration (endogenous): LC-MS/MS
Procedure: Monkeys were divided into three groups, each with two monkeys; each group received the following in a terminal study at the 5th week: Group 1 (Monkeys ID# 1 and ID# 5) received 40 IU of d5OT IN, Group 2 received 80 IU of d5OT IN (Monkeys ID# 2 and ID# 4) and Group 3 received 80 IU of d5OT IV (Monkeys ID# 3 and ID# 6). Animals were perfused on average, 140 ± 7 (mean ± SD) min after d5OT administration (range = 135–149 min) (Table 4). Plasma and CSF were drawn just before administration of d5OT, at the midpoint between d5OT administration and perfusion (~60 min post-d5OT administration), and just before perfusion.
Brain tissue distribution of d5OT, as well as the endogenous concentrations of OT (d0OT), were measured in the following 12 brain regions: cerebellum, brainstem, striatum, amygdala, thalamus, visual cortex, insular cortex, hypothalamus, hippocampus, mPFC (Brodmann areas 32,25,24), dPFC (Brodmann areas 46,9,10), and OFC (Brodmann areas 14,13,12) (Tables 1, 2 and 3).
Brain tissue sample preparation: Samples (~1.5 mg per sample) were individually weighed and placed into 12 mm × 75 mm glass tubes containing 1.5 ml ice-cold 1 M acetic acid and 30 µl of OT-d10 internal standard. Tissues were homogenized on ice and the resulting homogenates were poured into individual 15 ml polystyrene tubes. The original glass tube was rinsed with 1 ml acetonitrile, and this rinse was added to the appropriate 15 ml polystyrene tube containing the homogenate. After all homogenizations were complete, 3 ml acetonitrile was added to each tube and extraction proceeded, as described for the plasma and CSF samples.
LC–MS/MS instrument parameters: Microtiter plates were prepared, as described above, and loaded onto a SIL-30ACMP autosampler set at 4 °C (Shimadzu). Forty microliters of each standard, QC or sample were injected onto an ACE Excel 2 C18-PFP 50 mm × 2.1 mm column (Advanced Chromatography Technologies, LTD, Aberdeen, Scotland) at 50 °C using reversed-phase chromatography. Mobile phase A was 0.1% formic acid in water and mobile phase B was 0.1% formic acid in ACN. The LC time gradient was created using two Nexera LC-30AD pumps (Shimadzu) running at 0.5 ml/min. Chromatography for serum and CSF samples began at 10% B and ended at 16% B at 3.6 min. One minute at 60% B was then required to wash the column, and the pumps re-equilibrated at 10% B for an additional 1.7 min (total run time ~6 min). Outside of the 1.55–3.55 min window during which OT eluted, a divert valve sent the LC effluent to waste.
Heated electrospray […] in positive mode, with scheduled multiple reaction monitoring (MRM) on a Shimadzu LCMS-8050, was used for detection of OT. The interface temperature was 270 °C and heat block temperature was 170 °C. Gas was supplied by a Peak Genius 1051 nitrogen and air generator (Peak Scientific, Inchinnan, UK). Nitrogen gas was used for nebulizing (1 L/min) and drying (8.2 L/min), while air was used for heating (7.8 L/min). A capillary B needle was used in the interface. Needle protrusion was set to 1.25 mm and probe distance was set to 1.0 mm; both were determined empirically. Argon (Airgas, Radnor, PA) was used for the collision-induced dissociation at 330 kPa. The MS/MS conditions for OT were optimized using the automated MRM optimization procedure in LabSolutions software (Shimadzu). We collected two MRM transitions each, for d0OT (1007.40 > 723.40 and 1007.40 > 285.30), d5OT (1012.00 > 723.40 and 1012.00 > 290.35), and d10OT (1017.70 > 723.35 and 1017.70 > 295.40); the first transition listed in each case was used for quantitation, while the second was used as a reference ion. Retention times for d0OT, d5OT, and d10OT were 3.290, 3.270, and 3.253 min, respectively.
The sensitivities of each assay within the method were determined by the lowest and highest concentration calibrators in the calibration curve. The lower limit of quantitation (LLOQ) for d0OT was 10 pg/ml (4 pg/col); the LLOQ for d5OT was 100 pg/ml (40 pg/col). […]

In the case of `CC[C@H](C)[C@@H]1NC(=O)[C@H](Cc2ccc(O)cc2)NC(=O)[C@@H](N)CSSC[C@@H](C(=O)N2CCC[C@H]2C(=O)N[C@@H](CC(C)C)C(=O)NCC(N)=O)NC(=O)[C@H](CC(N)=O)NC(=O)[C@H](CCC(N)=O)NC1=O` [OT, oxytocin], the “Concentrations of endogenous brain oxytocin (OT)” value (from here on “Concentrations”) (Amygdala, 40 IN, monkey #5 (F)) was 2.14e-07 M, the “Concentrations” value (Amygdala, 80 IN, monkey #2 (M)) was 3.2e-08 M and the “Concentrations” value (Amygdala, 80 IN, monkey #4 (M)) was 1.31e-07 M. The “Concentrations” value (Amygdala, 80 IV, monkey #3 (F)) was 2.5e-08 M, the “Concentrations” value (Amygdala, 80 IV, monkey #6 (F)) was 4e-08 M and the “BRAIN OT concentration (endogenous)” value (Amygdala, after d5OT 40 IU IN, monkey #5 (F), perfused 138 min post-dose) was 39.11 pg/mg. The “BRAIN OT concentration (endogenous)” value (Amygdala, after d5OT 80 IU IN, monkey #2 (M), perfused 136 min post-dose) was 5.82 pg/mg, the “BRAIN OT concentration (endogenous)” value (Amygdala, after d5OT 80 IU IN, monkey #4 (M), perfused 135 min post-dose) was 23.97 pg/mg and the “BRAIN OT concentration (endogenous)” value (Amygdala, after d5OT 80 IU IV, monkey #3 (F), perfused 149 min post-dose) was 4.63 pg/mg. For the same compound, the “BRAIN OT concentration (endogenous)” value (Amygdala, after d5OT 80 IU IV, monkey #6 (F), perfused 135 min post-dose) was 7.26 pg/mg, the “Concentrations” value (Brainstem, 40 IN, monkey #1 (F)) was 4e-08 M and the “Concentrations” value (Brainstem, 40 IN, monkey #5 (F)) was 5.1e-08 M. The “Concentrations” value (Brainstem, 80 IN, monkey #2 (M)) was 2.8e-08 M, the “Concentrations” value (Brainstem, 80 IN, monkey #4 (M)) was 1.9e-08 M and the “Concentrations” value (Brainstem, 80 IV, monkey #3 (F)) was 6e-08 M. The “Concentrations” value (Brainstem, 80 IV, monkey #6 (F)) was 2e-08 M, the “BRAIN OT concentration (endogenous)” value (Brainstem, after d5OT 40 IU IN, monkey #1 (F), perfused 148 min post-dose) was 7.27 pg/mg and the “BRAIN OT concentration (endogenous)” value (Brainstem, after d5OT 40 IU IN, monkey #5 (F), perfused 138 min post-dose) was 9.34 pg/mg. For the same compound, the “BRAIN OT concentration (endogenous)” value (Brainstem, after d5OT 80 IU IN, monkey #2 (M), perfused 136 min post-dose) was 5.11 pg/mg, the “BRAIN OT concentration (endogenous)” value (Brainstem, after d5OT 80 IU IN, monkey #4 (M), perfused 135 min post-dose) was 3.55 pg/mg and the “BRAIN OT concentration (endogenous)” value (Brainstem, after d5OT 80 IU IV, monkey #3 (F), perfused 149 min post-dose) was 10.93 pg/mg. For the same compound, the “BRAIN OT concentration (endogenous)” value (Brainstem, after d5OT 80 IU IV, monkey #6 (F), perfused 135 min post-dose) was 3.58 pg/mg, the “Concentrations” value (Cerebellum, 40 IN, monkey #1 (F)) was 1.2e-08 M and the “Concentrations” value (Cerebellum, 40 IN, monkey #5 (F)) was less than 1e-09 M. The “Concentrations” value (Cerebellum, 80 IN, monkey #4 (M)) was less than 1e-09 M, the “Concentrations” value (Cerebellum, 80 IV, monkey #6 (F)) was “+” and the “BRAIN OT concentration (endogenous)” value (Cerebellum, after d5OT 40 IU IN, monkey #1 (F), perfused 148 min post-dose) was 2.16 pg/mg. The “BRAIN OT concentration (endogenous)” value (Cerebellum, after d5OT 40 IU IN, monkey #5 (F), perfused 138 min post-dose) was 0.12 pg/mg, the “BRAIN OT concentration (endogenous)” value (Cerebellum, after d5OT 80 IU IN, monkey #4 (M), perfused 135 min post-dose) was 0.06 pg/mg and the “BRAIN OT concentration (endogenous)” value (Cerebellum, after d5OT 80 IU IV, monkey #6 (F), perfused 135 min post-dose) was “+”. For the same compound, the “Concentrations” value (Hippocampus, 40 IN, monkey #1 (F)) was 5e-09 M, the “Concentrations” value (Hippocampus, 40 IN, monkey #5 (F)) was 5e-09 M and the “Concentrations” value (Hippocampus, 80 IN, monkey #2 (M)) was 1.5e-08 M. For the same compound, the “Concentrations” value (Hippocampus, 80 IN, monkey #4 (M)) was 1.5e-08 M, the “Concentrations” value (Hippocampus, 80 IV, monkey #3 (F)) was 5e-09 M and the “Concentrations” value (Hippocampus, 80 IV, monkey #6 (F)) was 5e-09 M. The “BRAIN OT concentration (endogenous)” value (Hippocampus, after d5OT 40 IU IN, monkey #1 (F), perfused 148 min post-dose) was 0.99 pg/mg, the “BRAIN OT concentration (endogenous)” value (Hippocampus, after d5OT 40 IU IN, monkey #5 (F), perfused 138 min post-dose) was 0.99 pg/mg and the “BRAIN OT concentration (endogenous)” value (Hippocampus, after d5OT 80 IU IN, monkey #2 (M), perfused 136 min post-dose) was 2.83 pg/mg. The “BRAIN OT concentration (endogenous)” value (Hippocampus, after d5OT 80 IU IV, monkey #3 (F), perfused 149 min post-dose) was 0.99 pg/mg, the “BRAIN OT concentration (endogenous)” value (Hypothalamus, after d5OT 40 IU IN, monkey #1 (F), perfused 148 min post-dose) was 2186.74 pg/mg and the “BRAIN OT concentration (endogenous)” value (Hypothalamus, after d5OT 80 IU IN, monkey #2 (M), perfused 136 min post-dose) was 943.27 pg/mg. The “BRAIN OT concentration (endogenous)” value (Hypothalamus, after d5OT 80 IU IV, monkey #3 (F), perfused 149 min post-dose) was 1491.96 pg/mg, the “Concentrations” value (Insular Cortex, 40 IN, monkey #5 (F)) was 2e-09 M and the “Concentrations” value (Insular Cortex, 80 IN, monkey #4 (M)) was less than 1e-09 M. The “Concentrations” value (Insular Cortex, 80 IV, monkey #3 (F)) was 1e-09 M.
